Test results published in PMC12985355 (Journal of the American Chemical Society, 2025).
Read-outs that look alike come from different tables or passages of the source.

Key:
CntL = CntL (Staphylococcus aureus, UniProt A0A0H3JXA8); test: thermal shift assay; assay type: binding
[1] = molecular target: T1, NAT (SAM:nocardicin 3-ACP transferase) (Nocardia uniformis, UniProt Q9RAH6); test: thermal shift assay; assay type: binding; settings: further addition to enzyme with nocardicin E (2)
T1 sequence (Q9RAH6 1-301): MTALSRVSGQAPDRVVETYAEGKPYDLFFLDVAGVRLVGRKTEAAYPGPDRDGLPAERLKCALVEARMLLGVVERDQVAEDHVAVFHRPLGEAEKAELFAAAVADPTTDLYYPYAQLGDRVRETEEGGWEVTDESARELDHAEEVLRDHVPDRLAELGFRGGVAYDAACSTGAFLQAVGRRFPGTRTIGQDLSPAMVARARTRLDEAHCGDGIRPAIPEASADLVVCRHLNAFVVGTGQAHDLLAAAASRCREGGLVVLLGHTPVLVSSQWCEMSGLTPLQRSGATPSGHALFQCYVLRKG

[2] = molecular target: T1, NAT (SAM:nocardicin 3-ACP transferase); test: 3-ACP transfer, LC-MS; assay type: biochemical; settings: SAM as co-substrate; very low yield
[3] = molecular target: T1, NAT (SAM:nocardicin 3-ACP transferase); test: thermal shift assay; assay type: binding; settings: binds to a similar extent as SAM; no turnover with nocardicin E

Chain of CntL (A0A0H3JXA8 whole entry): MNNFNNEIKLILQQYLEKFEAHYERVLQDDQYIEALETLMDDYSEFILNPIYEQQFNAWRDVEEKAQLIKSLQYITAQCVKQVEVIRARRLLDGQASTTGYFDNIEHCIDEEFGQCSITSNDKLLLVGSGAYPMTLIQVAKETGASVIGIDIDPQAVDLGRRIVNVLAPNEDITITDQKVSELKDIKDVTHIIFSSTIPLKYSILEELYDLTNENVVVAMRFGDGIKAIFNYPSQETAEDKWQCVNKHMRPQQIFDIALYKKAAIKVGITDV

N[C@H](Cc1c[nH]cn1)C(=O)O [D-histidine] was tested, and the melting point (CntL; with SAM present, no shift with da-SAM) was “the melting point increased when CntL was combined with SAM and D-his”.

C[S+](CC[C@H](N)C(=O)O)C[C@H]1O[C@@H](n2cnc3c(N)ncnc32)[C@H](O)[C@@H]1O (stereo partly drawn) [SAM] was tested, and the “increase in melting temperature” value [1] was 7 °C and the melting point (CntL) was “da-SAM can bind to the enzyme to the same extent as SAM”.

In the case of CC1(C)S[C@@H]2[C@H](NC(=O)[C@H](N)c3ccc(O)cc3)C(=O)N2[C@H]1C(=O)O [amoxicillin], the “3-ACP transfer, LC-MS” value [2] is reported as “NAT accepted both of them, to produce the 3-ACP-β-lactam products”.

For CC1=C(C(=O)O)N2C(=O)[C@@H](NC(=O)[C@H](N)c3ccc(O)cc3)[C@H]2SC1 [cefadroxil], the “3-ACP transfer, LC-MS” value [2] was “NAT accepted both of them, to produce the 3-ACP-β-lactam products”.

For C[S+](CCCC(=O)[O-])C[C@H]1O[C@@H](n2cnc3c(N)ncnc32)[C@H](O)[C@@H]1O (stereo partly drawn) [deamino-SAM], the melting temperature [3] was “deamino-SAM can bind to the enzyme to a similar extent as SAM”.
